Article PMC10914731, “Homo-BacPROTAC-induced degradation of ClpC1 as a strategy against drug-resistant mycobacteria” (Nature Communications, 2024)
In brackets after ≈: the same amount, converted by molar mass. Several values for one entry are separate records, joined by “and”; a condition that tells them apart may be missing. Equal values may be shown once. Read-outs that look alike come from different tables or passages of the source.

Legend:
[1] = type: in vitro ADME, Mice
Procedure, shortened: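 Compound (1 µmol/l) was incubated at 37 °C with 0.5 mg/ml liver microsomes in 100 mM Tris-HCl pH 7.5, 6.5 mM MgCl2 and 1 mM NADPH. Reactions were quenched with acetonitrile at several time points and parent remaining quantified by HPLC-MS/MS; first-order half-lives were converted to clearance as %Qh via the well-stirred model.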

[2] = test system: Mtb (katG del) ATCC 35822; assay: microbe, parasite or virus in culture; type: cell-based
[3] = test system: Mtb Beijing lineage HN878; type: cell-based, Mycobacterium tuberculosis
Klebsiella pneumoniae = assay: MIC ESKAPES panel, Klebsiella pneumoniae; type: cell-based
Experimental: Minimum inhibitory concentration (MIC) against ESKAPES panel of Gram positive and Gram negative pathogens (Enterococcus faecium, Staphylococcus aureus, Klebsiella pneumoniae, Acinetobacter baumannii, Pseudomonas aeruginosa, Enterobacter cloacae and Salmonella typhimurium [ESKAPES panel]) were determined at the FNDR by the standard broth dilution method [CLSI, M100]. […] Mueller Hinton broth (MHB) medium was used to grow ESKAPES panel strains. The individual cultures were added as 200 μL (inoculum of 3–7 × 10^5 cfu/ml) to the respective assay plates in each well to all columns, except the media control (200 μL of medium). […] The assay plates were incubated at 37 °C, and the results were noted on the 2nd day as turbidometric readout. The clear wells indicated inhibition of growth, while the turbid wells indicated uninhibited growth.

Mycobacterium fortuitum = assay: microbe, parasite or virus in culture; type: cell-based
full-length ClpC1 = molecular target: T1, full-length ClpC1 (Mycolicibacterium smegmatis, UniProt A0R574); assay: Cell-free degradation of full-length ClpC1 (WES, SDS-PAGE); type: biochemical, M. smegmatis; settings: WES / SYPRO Ruby SDS-PAGE, result in words
T1 construct: We also analyzed whether full-length ClpC1 would be degraded in this assay; made in house
Source text: We also analyzed whether full-length ClpC1 would be degraded in this assay, by analyzing the stability of the full-length form monitored by a ClpC1-N-terminal antibody in the WES assays, or directly by SYPRO^TM Ruby stained SDS-PAGE gels in the presence or absence of ClpC1-NTD as additional substrate. The Homo-BacPROTACs tested induced no or only minor degradation of the full-length ClpC1 under these in vitro conditions (Fig. 4e). Whether this is due to hexamer formation stabilizing ClpC1 protomers or missing cofactor(s) of the protease complex, is currently unclear. Likewise, the exact sequential and structural features of native substrates targeted by ClpC1 are not known, except that partially disordered peptide segments can promote degradation.
For SDS-PAGE experiments, reaction samples were treated with 2.7 µl 4x Roti Load 1 (Roth #K929.1), instead of adding sample buffer and fluorescent mastermix, and incubated at 95 °C for 5 min. […] The PageRuler Prestained Protein Ladder (Thermo Scientific #26616) was used as a marker. […]

[4] = molecular target: ClpC1 NTD, M. smegmatis ClpC1P1P2 complex (UniProt A0R574+P9WPC9); type: biochemical; settings: for ClpC1 NTD peak area: replicates 1 and 2; for % Response: two replicates
[5] = test system: replicating Mtb H37Rv cells; assay: Resazurin growth assay, replicating Mtb H37Rv (Supplementary Fig. 2); type: cell-based, Mycobacterium tuberculosis; settings: three replicate columns
Mtb H37Rv = settings: combination with bedaquiline; cited from earlier work
[6] = Mycobacterium tuberculosis, ATCC35822, M. tuberculosis ATCC 35822, single well replicates
[7] = Mycobacterium tuberculosis, ATCC35822, Mtb (katG del) ATCC 35822, mean ± SD, n = 3 well replicates
[8] = Klebsiella pneumoniae, Gram negative, n = 3 well replicates
[9] = Klebsiella pneumoniae, Gram-Negative Bacteria, replicates 1-3
[10] = Experiment 2, three replicate columns
[11] = Experiment 2, three replicate columns, read-out: MIC (µM) Mycobacterium fortuitum
[12] = Mycolicibacterium fortuitum, Experiment 1, read-out: MIC Mycobacterium fortuitum
[13] = Mycolicibacterium fortuitum, Experiment 2, three replicate columns, read-out: MIC (µM) Mycobacterium fortuitum
[14] = Mycolicibacterium fortuitum, Experiment 2, three replicate columns, read-out: MIC (µg/ml) Mycobacterium fortuitum
[15] = Mycolicibacterium fortuitum, mean ± SD, read-out: MIC Mycobacterium fortuitum

Sequence of ClpC1 NTD, M. smegmatis ClpC1P1P2 complex (P9WPC9 1-156, looked up, natural form): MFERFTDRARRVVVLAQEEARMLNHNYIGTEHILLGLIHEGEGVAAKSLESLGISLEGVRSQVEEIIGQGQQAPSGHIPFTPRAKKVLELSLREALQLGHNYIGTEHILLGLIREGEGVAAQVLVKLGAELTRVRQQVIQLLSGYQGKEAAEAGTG
Sequence of ClpC1 NTD, M. smegmatis ClpC1P1P2 complex (A0R574 whole entry): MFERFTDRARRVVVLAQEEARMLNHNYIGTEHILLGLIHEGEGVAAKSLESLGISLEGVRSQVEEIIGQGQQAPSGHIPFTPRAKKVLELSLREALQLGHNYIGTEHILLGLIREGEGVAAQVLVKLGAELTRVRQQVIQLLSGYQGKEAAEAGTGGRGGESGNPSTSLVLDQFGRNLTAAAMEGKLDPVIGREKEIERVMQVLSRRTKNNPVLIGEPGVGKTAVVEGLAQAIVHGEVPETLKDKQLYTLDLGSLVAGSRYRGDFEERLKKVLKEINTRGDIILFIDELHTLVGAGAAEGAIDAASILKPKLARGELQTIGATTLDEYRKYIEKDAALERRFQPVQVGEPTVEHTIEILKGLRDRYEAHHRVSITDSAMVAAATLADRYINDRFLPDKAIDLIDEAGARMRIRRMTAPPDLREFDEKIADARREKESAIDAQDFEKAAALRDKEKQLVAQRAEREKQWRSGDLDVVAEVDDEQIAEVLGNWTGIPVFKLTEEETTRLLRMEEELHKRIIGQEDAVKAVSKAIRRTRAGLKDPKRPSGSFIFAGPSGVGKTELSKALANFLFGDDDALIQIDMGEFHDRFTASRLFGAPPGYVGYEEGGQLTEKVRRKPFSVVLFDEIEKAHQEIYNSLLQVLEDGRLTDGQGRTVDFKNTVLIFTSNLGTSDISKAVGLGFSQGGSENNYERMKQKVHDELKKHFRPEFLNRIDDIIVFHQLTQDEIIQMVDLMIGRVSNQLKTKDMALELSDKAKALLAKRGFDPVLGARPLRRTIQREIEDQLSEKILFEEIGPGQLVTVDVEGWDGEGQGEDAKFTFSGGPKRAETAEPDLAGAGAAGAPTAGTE
T1 sequence (A0R574 whole entry): as above

COC(c1ccccc1)C1NC(=O)C(C)NC(=O)C(CC(C)CO)N(C)C(=O)C(Cc2cn(Cc3cn(CCOCCOCCOCCOCCn4cc(Cn5cc(CC6NC(=O)C(C(C)C)NC(=O)C(CC(C)C)N(C)C(=O)C(C(C)C)NC(=O)C(C(OC)c7ccccc7)NC(=O)C(C)NC(=O)C(CC(C)CO)N(C)C6=O)c6ccccc65)nn4)nn3)c3ccccc23)NC(=O)C(C(C)C)NC(=O)C(CC(C)C)N(C)C(=O)C(C(C)C)NC1=O (stereo not shown) [Compound 8]
Microsomal Stability Mice ([1]; clearance in microsomes): 72 %Qh
MIC [2, 6]: 0.195 µM (≈ 0.423 µg/mL)
MIC [2, 7]: 0.2 µM (≈ 0.434 µg/mL)
inhibition of bacterial growth, Mtb Beijing strain HN878 ([3]; compared to the matching monomers, result in words): more efficient inhibition of bacterial
MIC (Klebsiella pneumoniae; Gram-Negative Bacteria, replicates 1-3, listed as 8 (UdSBI-0545)): >50 µM
MIC (Klebsiella pneumoniae; [8]): > 50 µM
MIC (Klebsiella pneumoniae; [9]): > 109 µg/mL
MIC (Mycobacterium fortuitum; Experiment 1, listed as 8 (UdSBI-0545), read-out: MIC Mycobacterium fortuitum): >50 µM
MIC (µg/ml) Mycobacterium fortuitum (Mycobacterium fortuitum; [10]): >108.53 µg/mL
MIC (Mycobacterium fortuitum; [11]): >50 µM
MIC (Mycobacterium fortuitum; [12]): > 109 µg/mL
MIC (Mycobacterium fortuitum; [13]): > 50 µM
MIC (Mycobacterium fortuitum; [14]): > 109 µg/mL
MIC (Mycobacterium fortuitum; [15]): > 50 µM
degradation of full-length ClpC1 (full-length ClpC1): not significantly degraded
ClpC1 NTD peak area ([4]; 8 µM compound, time 0 min): 331639 and 301583
% Response ([4]; 8 µM compound, time 0 min): 94.5282% and 100.62%
ClpC1 NTD peak area ([4]; 8 µM compound, time 45 min): 314553 and 280109
% Response ([4]; 8 µM compound, time 45 min): 83.982% and 77.683%
ClpC1 NTD peak area ([4]; 8 µM compound, time 90 min): 285641 and 244656
% Response ([4]; 8 µM compound, time 90 min): 56.6216% and 52.7782%
ClpC1 NTD peak area ([4]; 8 µM compound, time 150 min): 191892
% Response ([4]; 8 µM compound, time 150 min): 43.2573%
ClpC1 NTD peak area ([4]; 8 µM compound, time 240 min): 311145 and 177822
% Response ([4]; 8 µM compound, time 240 min): 45.4516% and 26.6563%
ClpC1 NTD peak area ([4]; 8 µM compound, time 360 min): 222125 and 221356
% Response ([4]; 8 µM compound, time 360 min): 26.4436% and 30.03%
ClpC1 NTD peak area ([4]; 33 µM compound, time 0 min): 810154 and 722357
% Response ([4]; 33 µM compound, time 0 min): 102.812% and 94.7011%
ClpC1 NTD peak area ([4]; 33 µM compound, time 45 min): 641074 and 448402
% Response ([4]; 33 µM compound, time 45 min): 59.8432% and 44.7396%
ClpC1 NTD peak area ([4]; 33 µM compound, time 90 min): 173883 and 214990
% Response ([4]; 33 µM compound, time 90 min): 14.8318% and 19.2596%
ClpC1 NTD peak area ([4]; 33 µM compound, time 150 min): 175010 and 133678
% Response ([4]; 33 µM compound, time 150 min): 13.2219% and 10.0521%
ClpC1 NTD peak area ([4]; 33 µM compound, time 240 min): 91238.1 and 172941
% Response ([4]; 33 µM compound, time 240 min): 6.759% and 11.5705%
ClpC1 NTD peak area ([4]; 33 µM compound, time 360 min): 204242 and 62562.1
% Response ([4]; 33 µM compound, time 360 min): 8.812% and 3.58%
Supplementary Figure 2 dose-response value, replicating H37Rv cells ([5]; Conc. 0.0488281 µM): 104.399 and 96.7961 and 102.12
Supplementary Figure 2 dose-response value, replicating H37Rv cells ([5]; Conc. 0.0976562 µM): 93.8283 and 89.4675 and 92.0871
Supplementary Figure 2 dose-response value, replicating H37Rv cells ([5]; Conc. 0.195312 µM): 90.4271 and 81.4889 and 87.4903
Supplementary Figure 2 dose-response value, replicating H37Rv cells ([5]; Conc. 0.390625 µM): 51.3931 and 36.6199 and 50.2013
Supplementary Figure 2 dose-response value, replicating H37Rv cells ([5]; Conc. 0.78125 µM): -3.993 and -4.461 and -3.242
Supplementary Figure 2 dose-response value, replicating H37Rv cells ([5]; Conc. 1.5625 µM): -4.627 and -5.471 and -5.181
Supplementary Figure 2 dose-response value, replicating H37Rv cells ([5]; Conc. 3.125 µM): -6.152 and -6.465 and -5.866
Supplementary Figure 2 dose-response value, replicating H37Rv cells ([5]; Conc. 6.25 µM): -7.417 and -8.76 and -6.686
Supplementary Figure 2 dose-response value, replicating H37Rv cells ([5]; Conc. 25 µM): -8.655 and -4.856 and -8.241
Supplementary Figure 2 dose-response value, replicating H37Rv cells ([5]; Conc. 50 µM): -5.541 and -9.178 and -8.98
Supplementary Figure 2 dose-response value, replicating H37Rv cells ([5]; Conc. 100 µM): -7.259 and -9.127 and -7.68

COC(c1ccccc1)C1NC(=O)C(C)NC(=O)C(CC(C)CO)N(C)C(=O)C(Cc2cn(C)c3ccccc23)NC(=O)C(Cc2cn(CCCCCn3cc(CC4NC(=O)C(CC(C)C)N(C)C(=O)C(C(C)C)NC(=O)C(C(OC)c5ccccc5)NC(=O)C(C)NC(=O)C(CC(C)CO)N(C)C(=O)C(Cc5cn(C)c6ccccc56)NC4=O)nn3)nn2)NC(=O)C(CC(C)C)N(C)C(=O)C(C(C)C)NC1=O (stereo not shown) [Compound 12]
Microsomal Stability Mice ([1]; mouse, microsomes, pH 7.5): < 24 %Qh
Microsomal Stability Mouse QH ([1]; mouse, microsomes, pH 7.5): <24.2%
MIC ([2]; M. tuberculosis ATCC 35822, single well replicates): 0.098 µM (≈ 0.194 µg/mL)
MIC [2, 6]: 0.098 µM (≈ 0.194 µg/mL)
MIC [2, 7]: 0.1 µM (≈ 0.198 µg/mL)
inhibition of bacterial growth, Mtb Beijing strain HN878 [3]: more efficient inhibition of bacterial
MIC (Klebsiella pneumoniae; Gram-Negative Bacteria, replicates 1-3, listed as 12 (UdSBI-4377)): >50 µM
MIC (Klebsiella pneumoniae; [8]): > 50 µM
MIC (Klebsiella pneumoniae; [9]): > 99 µg/mL
MIC (Mycobacterium fortuitum; Experiment 1, listed as 12 (UdSBI-4377), read-out: MIC Mycobacterium fortuitum): >50 µM
MIC (µg/ml) Mycobacterium fortuitum (Mycobacterium fortuitum; [10]): >99.02 µg/mL
MIC (Mycobacterium fortuitum; [11]): >50 µM
MIC (Mycobacterium fortuitum; [12]): > 99 µg/mL
MIC (Mycobacterium fortuitum; [13]): > 50 µM
MIC (Mycobacterium fortuitum; [14]): > 99 µg/mL
MIC (Mycobacterium fortuitum; [15]): > 50 µM
effect of bedaquiline on activity against Mtb H37Rv (Mtb H37Rv): no effect
